One block for each compound: values may come before it. Activity calls are given as the source filed them. The rule behind the calls is not given here.
Key:
Cytochrome P450 2D6 = Cytochrome P450 2D6 (Homo sapiens, UniProt P10635); assay: Inhibition of CYP2D6; type: ADME
[1] = target: T1, Chemoattractant receptor-homologous molecule expressed on Th2 cells (Cavia porcellus, UniProt Q56D28); assay: Binding affinity to guinea pig CRTh2 receptor
T1 sequence (Q56D28 whole entry): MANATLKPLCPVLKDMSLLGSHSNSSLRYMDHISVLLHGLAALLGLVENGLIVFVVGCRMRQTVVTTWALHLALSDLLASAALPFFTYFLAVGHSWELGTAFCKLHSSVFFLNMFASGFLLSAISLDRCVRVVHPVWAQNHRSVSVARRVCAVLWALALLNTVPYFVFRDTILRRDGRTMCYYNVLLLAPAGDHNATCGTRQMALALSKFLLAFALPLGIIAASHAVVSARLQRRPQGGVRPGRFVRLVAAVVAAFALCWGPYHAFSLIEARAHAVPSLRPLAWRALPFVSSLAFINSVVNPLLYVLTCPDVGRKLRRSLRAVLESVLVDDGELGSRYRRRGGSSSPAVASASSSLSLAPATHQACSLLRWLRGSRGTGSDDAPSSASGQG

[2] = target: T2, Prostaglandin D2 receptor 2 (Rattus norvegicus, UniProt Q6XKD3); assay: Binding affinity to rat CRTh2 receptor
T2 sequence (Q6XKD3 whole entry): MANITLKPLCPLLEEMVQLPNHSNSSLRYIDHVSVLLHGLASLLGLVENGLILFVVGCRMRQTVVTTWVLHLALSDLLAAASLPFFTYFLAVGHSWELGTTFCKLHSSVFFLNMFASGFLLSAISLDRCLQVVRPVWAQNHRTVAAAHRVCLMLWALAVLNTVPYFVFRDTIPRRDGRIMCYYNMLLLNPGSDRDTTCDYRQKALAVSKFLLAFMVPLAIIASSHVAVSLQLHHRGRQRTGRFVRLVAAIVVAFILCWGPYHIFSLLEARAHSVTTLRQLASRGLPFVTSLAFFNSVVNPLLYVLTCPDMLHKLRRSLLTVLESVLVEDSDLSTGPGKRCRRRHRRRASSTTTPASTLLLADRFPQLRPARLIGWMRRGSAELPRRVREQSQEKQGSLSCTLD

[3] = Oral bioavailability in rat; type: ADME, organism-based; details: in vivo
[4] = Fraction unbound in rat plasma; type: ADME, cell-free
[5] = Oral bioavailability in dog; type: ADME, organism-based, Canis lupus familiaris; details: in vivo
[6] = target: T3, Prostaglandin D2 receptor 2 (Homo sapiens, UniProt Q9Y5Y4); assay: Displacement of [3H]-PGD2 from CRTh2 receptor by scintillation proximity assay
T3 sequence (Q9Y5Y4 whole entry): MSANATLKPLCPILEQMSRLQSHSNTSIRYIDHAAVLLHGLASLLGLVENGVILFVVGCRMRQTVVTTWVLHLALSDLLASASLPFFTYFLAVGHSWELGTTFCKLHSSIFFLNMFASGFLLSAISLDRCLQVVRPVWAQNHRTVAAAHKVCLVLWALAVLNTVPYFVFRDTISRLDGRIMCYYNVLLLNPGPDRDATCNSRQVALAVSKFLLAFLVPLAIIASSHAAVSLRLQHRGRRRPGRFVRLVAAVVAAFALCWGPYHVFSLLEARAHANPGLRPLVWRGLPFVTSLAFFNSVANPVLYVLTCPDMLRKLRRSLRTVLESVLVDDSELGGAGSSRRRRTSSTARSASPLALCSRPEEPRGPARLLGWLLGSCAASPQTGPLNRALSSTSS

Mus musculus = species on record: Mus musculus; assay: Protection against 11 days tobacco smoke-induced mucosal damage in mouse lung assessed as inhibition of inflammatory cells accumulation; type: functional, organism-based
Cytochrome P450 1A2 = target: T4, Cytochrome P450 1A2 (Homo sapiens, UniProt P05177); assay: Inhibition of CYP1A2; type: ADME
T4 sequence (P05177 whole entry): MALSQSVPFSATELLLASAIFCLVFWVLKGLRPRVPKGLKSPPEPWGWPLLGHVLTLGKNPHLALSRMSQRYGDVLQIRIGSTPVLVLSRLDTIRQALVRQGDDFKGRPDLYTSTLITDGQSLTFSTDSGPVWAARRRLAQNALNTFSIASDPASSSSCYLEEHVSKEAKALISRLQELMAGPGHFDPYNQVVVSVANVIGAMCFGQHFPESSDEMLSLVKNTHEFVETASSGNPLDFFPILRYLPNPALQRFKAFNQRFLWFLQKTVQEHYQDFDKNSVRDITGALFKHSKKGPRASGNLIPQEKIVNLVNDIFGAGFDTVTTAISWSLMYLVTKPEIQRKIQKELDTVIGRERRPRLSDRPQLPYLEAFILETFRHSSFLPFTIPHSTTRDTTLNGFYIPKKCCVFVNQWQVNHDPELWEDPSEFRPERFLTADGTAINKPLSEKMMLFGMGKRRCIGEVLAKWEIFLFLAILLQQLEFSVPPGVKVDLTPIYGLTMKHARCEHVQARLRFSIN

[7] = target: T3, Prostaglandin D2 receptor 2; assay: Antagonist activity at human CRTh2 receptor expressed in CHO cells assessed as inhibition of PGD2-induced calcium flux in presence of 1% bovine serum albumin; type: functional, cell-based
Cytochrome P450 2C19 = Cytochrome P450 2C19 (Homo sapiens, UniProt P33261); assay: Inhibition of CYP2C19; type: ADME
Cytochrome P450 2C19, sequence (P33261 whole entry): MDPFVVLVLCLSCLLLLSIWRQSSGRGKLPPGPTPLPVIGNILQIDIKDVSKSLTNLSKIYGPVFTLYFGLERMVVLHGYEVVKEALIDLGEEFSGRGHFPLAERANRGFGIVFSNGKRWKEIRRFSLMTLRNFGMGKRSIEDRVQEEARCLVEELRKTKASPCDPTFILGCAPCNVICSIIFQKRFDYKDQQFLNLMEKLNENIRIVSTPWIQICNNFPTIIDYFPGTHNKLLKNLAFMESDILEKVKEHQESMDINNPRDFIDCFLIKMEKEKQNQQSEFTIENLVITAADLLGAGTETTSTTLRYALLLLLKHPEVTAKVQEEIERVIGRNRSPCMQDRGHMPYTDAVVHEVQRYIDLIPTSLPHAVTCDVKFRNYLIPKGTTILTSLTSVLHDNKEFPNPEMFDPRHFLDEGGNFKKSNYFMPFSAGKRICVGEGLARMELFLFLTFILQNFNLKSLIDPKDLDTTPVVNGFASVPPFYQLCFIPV

Cytochrome P450 3A4 = Cytochrome P450 3A4 (Homo sapiens, UniProt P08684); assay: Inhibition of CYP3A4; type: ADME
Cytochrome P450 3A4, sequence (P08684 whole entry): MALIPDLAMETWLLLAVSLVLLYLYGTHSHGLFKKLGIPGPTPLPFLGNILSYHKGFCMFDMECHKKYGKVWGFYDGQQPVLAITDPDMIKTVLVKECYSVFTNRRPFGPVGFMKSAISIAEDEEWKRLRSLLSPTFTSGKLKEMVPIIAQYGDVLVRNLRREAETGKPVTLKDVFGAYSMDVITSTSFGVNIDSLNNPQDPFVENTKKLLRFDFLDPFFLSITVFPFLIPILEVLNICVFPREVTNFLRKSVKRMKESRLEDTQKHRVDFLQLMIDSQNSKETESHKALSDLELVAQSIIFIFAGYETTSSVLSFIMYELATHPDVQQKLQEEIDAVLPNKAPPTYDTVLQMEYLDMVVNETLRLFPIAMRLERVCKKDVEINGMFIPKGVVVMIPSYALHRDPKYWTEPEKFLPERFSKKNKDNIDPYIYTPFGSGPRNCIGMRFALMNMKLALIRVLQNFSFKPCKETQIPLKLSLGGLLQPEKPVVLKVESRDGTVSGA

[8] = Fraction unbound in human plasma; type: ADME, cell-free
[9] = Fraction unbound in cynomolgus monkey plasma; type: ADME, cell-free, Macaca fascicularis
Cytochrome P450 2C9 = Cytochrome P450 2C9 (Homo sapiens, UniProt P11712); assay: Inhibition of CYP2C9; type: ADME
Cytochrome P450 2C9, sequence (P11712 whole entry): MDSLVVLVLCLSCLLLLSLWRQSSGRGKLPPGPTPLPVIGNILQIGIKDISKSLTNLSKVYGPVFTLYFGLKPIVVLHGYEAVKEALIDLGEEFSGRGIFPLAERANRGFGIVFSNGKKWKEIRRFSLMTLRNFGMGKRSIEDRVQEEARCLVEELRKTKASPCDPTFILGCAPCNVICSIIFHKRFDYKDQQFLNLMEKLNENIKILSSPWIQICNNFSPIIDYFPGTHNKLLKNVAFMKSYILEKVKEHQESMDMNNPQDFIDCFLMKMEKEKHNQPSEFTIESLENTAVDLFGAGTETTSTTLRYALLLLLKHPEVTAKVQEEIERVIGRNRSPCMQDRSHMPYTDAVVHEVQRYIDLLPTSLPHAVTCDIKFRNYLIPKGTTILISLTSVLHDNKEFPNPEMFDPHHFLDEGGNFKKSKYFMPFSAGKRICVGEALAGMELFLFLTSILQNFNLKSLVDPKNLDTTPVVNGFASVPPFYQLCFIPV

[10] = Fraction unbound in dog plasma; type: ADME, cell-free, Canis lupus familiaris
[11] = target: T5, Prostaglandin D2 receptor 2 (Mus musculus, UniProt Q9Z2J6); assay: Binding affinity to mouse CRTh2 receptor
T5 sequence (Q9Z2J6 whole entry): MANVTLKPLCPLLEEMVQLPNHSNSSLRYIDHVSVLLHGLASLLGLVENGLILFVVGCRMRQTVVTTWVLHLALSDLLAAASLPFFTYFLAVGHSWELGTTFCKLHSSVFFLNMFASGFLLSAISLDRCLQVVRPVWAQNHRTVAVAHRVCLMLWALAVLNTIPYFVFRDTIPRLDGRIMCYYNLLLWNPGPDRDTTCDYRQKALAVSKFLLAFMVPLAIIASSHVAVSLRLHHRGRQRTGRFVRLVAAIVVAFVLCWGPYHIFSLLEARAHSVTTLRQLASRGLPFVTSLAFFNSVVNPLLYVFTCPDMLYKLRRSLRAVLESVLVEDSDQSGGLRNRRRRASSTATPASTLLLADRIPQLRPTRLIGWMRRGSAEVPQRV

[12] = Half life in iv dosed rat; details: in vivo
[13] = Intrinsic clearance in rat hepatocytes assessed per 1 x 10^6 cells
[14] = Intrinsic clearance in human liver microsomes
[15] = Aqueous solubility of the compound in buffer at pH 7.4; type: physicochemical

Cytochrome P450 2D6, sequence (P10635 whole entry): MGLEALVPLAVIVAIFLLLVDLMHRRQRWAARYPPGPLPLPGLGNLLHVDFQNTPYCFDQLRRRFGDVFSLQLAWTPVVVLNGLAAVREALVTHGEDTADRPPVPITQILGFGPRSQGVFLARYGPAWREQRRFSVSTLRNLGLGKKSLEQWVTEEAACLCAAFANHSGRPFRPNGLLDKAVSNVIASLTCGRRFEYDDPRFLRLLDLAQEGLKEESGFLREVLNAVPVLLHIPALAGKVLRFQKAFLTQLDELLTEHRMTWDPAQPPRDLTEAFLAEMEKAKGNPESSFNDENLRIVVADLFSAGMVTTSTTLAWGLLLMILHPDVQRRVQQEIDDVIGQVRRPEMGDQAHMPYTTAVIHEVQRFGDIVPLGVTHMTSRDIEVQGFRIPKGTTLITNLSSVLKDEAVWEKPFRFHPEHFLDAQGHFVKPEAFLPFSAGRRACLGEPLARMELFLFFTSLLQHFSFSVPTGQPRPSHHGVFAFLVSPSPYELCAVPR

IC50 (Cytochrome P450 2D6): > 50000 nM | IC50 [1]: 63 nM | IC50 [2]: 1.3 nM | bioavailability [3]: 42% | fraction unbound [4]: 0.056 | bioavailability [5]: 46% | IC50 [6]: 0.9 nM | IC50 (Cytochrome P450 1A2): > 50000 nM | IC50 [7]: 29 nM | IC50 (Cytochrome P450 2C19): > 50000 nM | IC50 (Cytochrome P450 3A4): > 50000 nM | fraction unbound [8]: 0.046 | fraction unbound [9]: 0.026 | IC50 (Cytochrome P450 2C9): > 50000 nM | fraction unbound [10]: 0.03 | IC50 [11]: 1 nM
SMILES: CCS(=O)(=O)c1ccc(-c2cc(C(F)(F)F)ccc2OCC(=O)O)c(C)c1
Activity (Mus musculus): Active

half-life [12]: 2.3 h | bioavailability [3]: 96% | IC50 [6]: 1.7 nM | hepatocyte CLint [13]: 5 µL/min/1e6 cells | IC50 [7]: 10 nM | microsomal CLint ([14]; microsomes): < 3 µL/min/mg
SMILES: N#Cc1cccc(-c2cc(Cl)ccc2OCC(=O)O)c1

IC50 [6]: 45 nM | hepatocyte CLint [13]: 3 µL/min/1e6 cells | microsomal CLint ([14]; liver microsomes): < 3 µL/min/mg | solubility [15]: > 80 µM
SMILES: O=C(O)COc1ccc(C(F)(F)F)cc1-c1ccccc1
